From patent US20260250320A1, “LIPIDATED PEPTIDE INHIBITORS OF INTERLEUKIN-23 RECEPTOR” (Janssen Pharmaceutica NV, priority 2023, published 2026) come the findings set out here.

SMILES strings stand for the structures. *1 amine or outer side, *2 acyl side, *3 side chain or, on linkers, in order; H or OH if unused. Where a SMILES comes first, the peptide text is derived from it. Bridges are numbered along the chain shown (N, C = ends). Side-chain parts run from the residue outwards. [ ]: non-standard residue; d: D form. The star is where a group is joined. ξ: configuration not given here. X5 = O=C(O)CCCCCCCCCCCCCCCCC(=O)N[C@@H](CCC(=O)NC(=O)*)C(=O)O; Me3N+(CH2)2O(CH2)2O(CH2)2CO = C[N+](C)(C)CCOCCOCCC(=O)*; PEG12 = NCCOCCOCCOCCOCCOCCOCCOCCOCCOCCOCCOCCOCCC(=O)O; CH2CH2OCH2CH2OCH2CH2NMe3+ = C[N+](C)(C)CCOCCOCC*; NH(CH2CH2O)2CH2CH2NMe3+ = C[N+](C)(C)CCOCCOCCN*; Trp(7-Me) = Cc1cccc2c(C[C@H](N)C(=O)O)c[nH]c12; C18 diacid = O=C(O)CCCCCCCCCCCCCCCCC(=O)*; γGlu = O=C(O)[C@H](CCC(=O)[*:2])N[*:1]; 2Nal = N[C@@H](Cc1ccc2ccccc2c1)C(=O)O; AEF = NCCOc1ccc(C[C@H](N)C(=O)O)cc1; X2 = C[N+](C)(C)C[C@@H](CC(=O)O)N*; 3Pal = N[C@@H](Cc1cccnc1)C(=O)O; Lys(Me) = CNCCCC[C@H](N)C(=O)O; NMeK = CN[C@@H](CCCCN)C(=O)O; Pen = CC(C)(S)[C@H](N)C(=O)O; Suc = O=C(CCC(=O)[*:2])[*:1]; Thp = NC1(C(=O)O)CCOCC1; AEEA = NCCOCCOCC(=O)O; ξK = NCCCCC(N)C(=O)O; Sar = CNCC(=O)O Some results are limits rather than exact numbers.

In experiment [1] the test system is IL-23-stimulated phosphorylated STAT3 in peripheral blood mononuclear cells (PBMCs). The experiment can be described thus: PBMC pSTAT3 Assay. Type of experiment: cell-based. Particulars: PBMCs from healthy donors; 30 min preincubation with peptide; IL-23 5 ng/mL for 30 min; phospho-STAT3 by MSD. On the procedure:
Cryopreserved peripheral blood mononuclear cells (PBMCs) from healthy donors were thawed and washed twice in ImmunoCult-XF T cell expansion medium (XF-TCEM) supplemented with CTL anti-aggregate wash. The cells were counted, resuspended at 2-6×10^5 cells per mL XF-TCEM supplemented with penicillin/streptomycin and 100 ng/mL […] (BioLegend, 579404), and cultured in tissue culture flasks coated with anti-CD3 (eBioscience, 16-0037-85 or BD Pharmingen, 555329) at 37° C. in 5% CO2. On day 4 of culture, PBMCs were collected, washed twice in RPMI-1640 supplemented with 0.1% BSA (RPMI-BSA), and incubated in RPMI-BSA in upright tissue culture flasks for ~4 hours at 37° C. in 5% CO2. Following this 'starvation,' a total of 6×10^4 cells in 30 μL RPMI-BSA was transferred into each well of a 384-well plate pre-spotted with peptide or DMSO. The cells were incubated for 30 minutes prior to the addition of […] at a final concentration of 5 ng/mL. The cells were stimulated with cytokine for 30 minutes at 37° C. in 5% CO2, transferred onto ice for 10 minutes, and lysed. Cell lysates were stored at -80° C. until phosphorylated STAT3 was measured using the phospho-STAT panel kit (Meso Scale Discovery, […]). Results are provided below. • A: IC50<0.5 nM; • B: 0.5 nM≤IC50<5 nM; • C: 5 nM≤IC50; • ND: Not determined

The target of a further experiment is T1, IL-23R (Homo sapiens, UniProt Q5VWK5).
T1 construct: HEK293 cells containing IL-23R, IL-12Rβ1 and a firefly luciferase reporter gene driven by a STAT-inducible promoter (Promega); host or cells: HEK293
T1 sequence (Q5VWK5 24-629): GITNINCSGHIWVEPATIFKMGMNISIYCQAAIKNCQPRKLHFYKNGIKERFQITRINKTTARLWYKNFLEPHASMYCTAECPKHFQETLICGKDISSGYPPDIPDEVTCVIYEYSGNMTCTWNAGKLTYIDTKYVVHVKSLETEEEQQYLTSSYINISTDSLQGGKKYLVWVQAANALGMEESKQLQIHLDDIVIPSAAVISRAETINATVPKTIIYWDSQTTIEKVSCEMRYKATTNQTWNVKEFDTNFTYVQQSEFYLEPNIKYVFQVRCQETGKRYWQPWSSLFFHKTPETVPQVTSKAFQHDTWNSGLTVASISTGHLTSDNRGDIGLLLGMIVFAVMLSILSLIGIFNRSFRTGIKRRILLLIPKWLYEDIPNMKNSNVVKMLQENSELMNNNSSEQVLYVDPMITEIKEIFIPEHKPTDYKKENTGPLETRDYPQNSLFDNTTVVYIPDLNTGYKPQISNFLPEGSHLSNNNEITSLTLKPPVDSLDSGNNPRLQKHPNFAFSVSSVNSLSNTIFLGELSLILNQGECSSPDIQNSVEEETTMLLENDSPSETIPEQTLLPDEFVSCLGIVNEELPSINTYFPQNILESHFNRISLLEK
In words: IL23R Reporter Assay. It is filed as cell-based. Particulars: HEK293 cells containing IL-23R, IL-12Rβ1 and STAT-inducible firefly luciferase reporter; 10 ng/mL IL-23 (EC90); 5 h. On the procedure: Compounds were serially diluted in 100% (v/v) DMSO) and plated using an Echo acoustic dispenser (Labcyte) into 1536-well non-treated black assay plates (Corning #9146). 3 μL of HEK293 cells containing IL-23R, IL-12Rβ1 and a firefly luciferase reporter gene driven by a STAT-inducible promoter (Promega) were added to the plates (4000 cells/well), followed by 3 μL of 10 ng/mL IL-23 (equivalent to EC90 concentration). After 5 h at 37° C., 5% CO2, 95% relative humidity, cells were placed at 20° C. and treated with BioGlo reagent (Promega) according to the Manufacturer's instructions. Luminescence was measured on a Pherastar FSX (BMG LabTech). Data were normalized to IL-23 treatment (0% inhibition) and 30 μM of control inhibitor (100% inhibition), and IC50 values were determined using a 4-parameter Hill equation.

As a reminder, the IC50 is the concentration that gives 50% inhibition. Lower therefore signals inhibition by little substance. Consider `CC(=O)NCCCC[C@@H]1NC(=O)[C@H](Cc2c[nH]c3c(C)cccc23)NC(=O)[C@H]([C@@H](C)O)NC(=O)[C@H](CC(N)=O)NC(=O)[C@@H](NC(=O)COCCOCCNC(=O)COCCOCCNC(=O)CC[C@H](NC(=O)CCCCCCCCCCCCCCCCC(=O)O)C(=O)O)C(C)(C)SSC(C)(C)[C@@H](C(=O)N[C@@H](Cc2ccc(OCCN)cc2)C(=O)N[C@@H](Cc2ccc3ccccc3c2)C(=O)NC2(C(=O)N[C@@H](CCC(=O)O)C(=O)N[C@@H](CC(N)=O)C(=O)N[C@@H](Cc3cccnc3)C(=O)N(C)CC(N)=O)CCOCC2)NC1=O` [compound 61, HOC18gEPEG2PEG2CO-Pen(3)-N-T-7MeW-K(Ac)-Pen(3)-AEF-2Nal-THP-E-N-3Pya-Sar-CONH2], for which the figures for the IC50 (in experiment [1]; on IL-23R) were less than 0.5 nM and less than 50 nM, respectively.
On the same counts, the results for `CC(=O)NCCCC[C@@H]1NC(=O)[C@H](Cc2c[nH]c3c(C)cccc23)NC(=O)[C@H]([C@@H](C)O)NC(=O)[C@H](CC(N)=O)NC(=O)[C@@H](NC(=O)[C@@H](CCCNC(=N)N)NC(=O)CCC(=O)N[C@H](CC(=O)O)C[N+](C)(C)C)C(C)(C)SSC(C)(C)[C@@H](C(=O)N[C@@H](Cc2ccc(OCCNC(=O)COCCOCCNC(=O)COCCOCCNC(=O)NC(=O)CC[C@H](NC(=O)CCCCCCCCCCCCCCCCC(=O)O)C(=O)O)cc2)C(=O)N[C@@H](Cc2ccc3ccccc3c2)C(=O)NC2(C(=O)N[C@@H](CCC(=O)O)C(=O)N[C@@H](CC(N)=O)C(=O)N[C@@H](Cc3cccnc3)C(=O)N(C)CC(N)=O)CCOCC2)NC1=O` [compound 11, succiniccarn-r-Pen(3)-N-T-7MeW-K(Ac)-Pen(3)-AEF(PEG2PEG2gEC18OH)-2Nal-THP-E-N-3Pya-Sar-CONH2] ({X2-Suc}-[dR][Pen]NT[Trp(7-Me)]K(Ac)[Pen][AEF]([AEEA-AEEA-X5])[2Nal][Thp]EN[3Pal][Sar]-NH2; disulfide 2-7) are 0.5 to 5 nM and 50 to 500 nM.
On the same counts, the results for `CC(=O)N[C@H](CCCNC(=N)N)C(=O)N[C@@H]1C(=O)N[C@@H](CC(N)=O)C(=O)N[C@@H]([C@@H](C)O)C(=O)N[C@@H](Cc2c[nH]c3c(C)cccc23)C(=O)NC(CCCCNC(=O)COCCOCCNC(=O)COCCOCCNC(=O)CC[C@H](NC(=O)CCCCCCCCCCCCCCCCC(=O)O)C(=O)O)C(=O)N[C@H](C(=O)N[C@@H](Cc2ccc(OCCN)cc2)C(=O)N[C@@H](Cc2ccc3ccccc3c2)C(=O)NC2(C(=O)N[C@@H](CCC(=O)O)C(=O)N[C@@H](CC(N)=O)C(=O)N[C@@H](Cc3cccnc3)C(=O)N(C)CC(N)=O)CCOCC2)C(C)(C)SSC1(C)C` (stereo partly drawn) [compound 59, MeCO-r-Pen(3)-N-T-7MeW-K(PEG2PEG2gEC18OH)-Pen(3)-AEF-2Nal-THP-E-N-3Pya-Sar-CONH2] (Ac-[dR][Pen]NT[Trp(7-Me)][ξK]([AEEA-AEEA-γGlu-C18 diacid])[Pen][AEF][2Nal][Thp]EN[3Pal][Sar]-NH2; disulfide 2-7) are less than 0.5 nM and 50 to 500 nM.
On the same counts, the results for `CC(=O)N(C)CCCC[C@@H]1NC(=O)[C@H](Cc2c[nH]c3c(C)cccc23)NC(=O)[C@H]([C@@H](C)O)NC(=O)[C@H](CC(=O)N(C)C)NC(=O)[C@@H](NC(=O)CCOCCOCC[N+](C)(C)C)C(C)(C)SSC(C)(C)[C@@H](C(=O)N[C@@H](Cc2ccc(OCCOCCOCC[N+](C)(C)C)cc2)C(=O)N[C@@H](Cc2ccc3ccccc3c2)C(=O)NC2(C(=O)N[C@@H](CCCCN(C)C(C)=O)C(=O)N[C@@H](CC(N)=O)C(=O)N[C@@H](Cc3cccnc3)C(=O)N(C)[C@@H](CCCCNC(=O)CCOCCOCCOCCOCCOCCOCCOCCOCCOCCOCCOCCOCCNC(=O)CC[C@H](NC(=O)CCCCCCCCCCCCCCCCC(=O)O)C(=O)O)C(N)=O)CCOCC2)NC1=O` [compound 107, cPEG3aCO-Pen(3)-N(N(Me)2)-T-7MeW-K(NMeAc)-Pen(3)-APEG3F-2Nal-THP-K(NMeAc)-N-3Pya-NMeK(PEG12gEC18OH)-CONH2] ({Me3N+(CH2)2O(CH2)2O(CH2)2CO}-[Pen]D(NMe2)T[Trp(7-Me)][Lys(Me)](Ac)[Pen]Y(CH2CH2OCH2CH2OCH2CH2NMe3+)[2Nal][Thp][Lys(Me)](Ac)N[3Pal][NMeK]([PEG12-γGlu-C18 diacid])-NH2; disulfide 1-6) are less than 0.5 nM and less than 50 nM.
Compound `CC(=O)NCCCC[C@@H]1NC(=O)[C@H](Cc2c[nH]c3c(C)cccc23)NC(=O)[C@H]([C@@H](C)O)NC(=O)[C@H](CC(N)=O)NC(=O)[C@@H](NC(=O)[C@@H](CCCNC(=N)N)NC(C)=O)C(C)(C)SSC(C)(C)[C@@H](C(=O)N[C@@H](Cc2ccc(OCCN)cc2)C(=O)N[C@@H](Cc2ccc3ccccc3c2)C(=O)NC2(C(=O)N[C@@H](CCC(=O)O)C(=O)N[C@@H](CC(N)=O)C(=O)N[C@@H](Cc3cccnc3)C(=O)N(C)CC(=O)N[C@@H](CCCCNC(=O)COCCOCCNC(=O)COCCOCCNC(=O)CC[C@H](NC(=O)CCCCCCCCCCCCCCCCC(=O)O)C(=O)O)C(=O)NCCOCCOCC[N+](C)(C)C)CCOCC2)NC1=O` [compound 40, MeCO-r-Pen(3)-N-T-7MeW-K(Ac)-Pen(3)-AEF-2Nal-THP-E-N-3Pya-Sar-K(PEG2PEG2gEC18OH)-CONH(PEG3a)] (Ac-[dR][Pen]NT[Trp(7-Me)]K(Ac)[Pen][AEF][2Nal][Thp]EN[3Pal][Sar]K([AEEA-AEEA-γGlu-C18 diacid])-{NH(CH2CH2O)2CH2CH2NMe3+}; disulfide 2-7) gave an IC50 in experiment [1] of 0.5 to 5 nM.
On the same count and under the same terms, with `CC(=O)NCCCC[C@@H]1NC(=O)[C@H](Cc2c[nH]c3c(C)cccc23)NC(=O)[C@H]([C@@H](C)O)NC(=O)[C@H](CCCCNC(=O)COCCOCCNC(=O)COCCOCCNC(=O)CC[C@H](NC(=O)CCCCCCCCCCCCCCCCC(=O)O)C(=O)O)NC(=O)[C@@H](NC(C)=O)C(C)(C)SSC(C)(C)[C@@H](C(=O)N[C@@H](Cc2ccc(OCCN)cc2)C(=O)N[C@@H](Cc2ccc3ccccc3c2)C(=O)NC2(C(=O)N[C@@H](CCCCNC(=O)CCC(=O)N[C@H](CC(=O)O)C[N+](C)(C)C)C(=O)N[C@@H](CC(N)=O)C(=O)N[C@@H](Cc3cccnc3)C(=O)N(C)CC(N)=O)CCOCC2)NC1=O` [compound 14, MeCO-Pen(3)-K(PEG2PEG2gEC18OH)-T-7MeW-K(Ac)-Pen(3)-AEF-2Nal-THP-K(d)-N-3Pya-Sar-CONH2] (Ac-[Pen]K([AEEA-AEEA-γGlu-C18 diacid])T[Trp(7-Me)]K(Ac)[Pen][AEF][2Nal][Thp]K([Suc-X2])N[3Pal][Sar]-NH2; disulfide 1-6) the figure was less than 0.5 nM; with `CC(=O)NCCCC[C@@H]1NC(=O)[C@H](Cc2c[nH]c3c(C)cccc23)NC(=O)[C@H]([C@@H](C)O)NC(=O)[C@H](CC(N)=O)NC(=O)[C@@H](NC(C)=O)C(C)(C)SSC(C)(C)[C@@H](C(=O)N[C@@H](Cc2ccc(OCCCCC[N+](C)(C)C)cc2)C(=O)N[C@@H](Cc2ccc3ccccc3c2)C(=O)NC2(C(=O)N[C@@H](CCCCNC(=O)COCCOCCNC(=O)COCCOCCNC(=O)CC[C@H](NC(=O)CCCCCCCCCCCCCCCCC(=O)O)C(=O)O)C(=O)N[C@@H](CC(N)=O)C(=O)N[C@@H](Cc3ccccn3)C(=O)N(C)CC(N)=O)CCOCC2)NC1=O` [compound 85, MeCO-Pen(3)-N-T-7MeW-K(Ac)-Pen(3)-TMAPF-2Nal-THP-K(PEG2PEG2gEC18OH)-N-3Pya-Sar-CONH2], less than 0.5 nM.
